# Tested on: caspase 3/7 in 22Rv1 cells
# Experiment: Caspase-Glo 3/7 assay 22Rv1
# Assay type: cell-based
# Settings: read-out: EC50 Caspase-Glo 3/7, 24h
smiles,measurement,value
Cc1ncsc1-c1ccc([C@H](C)NC(=O)[C@@H]2C[C@@H](O)CN2C(=O)[C@@H](NC(=O)COCCCOCCNC(=O)C[C@@H]2N=C(c3ccc(Cl)cc3)c3c(sc(C)c3C)-n3c(C)nnc32)C(C)(C)C)cc1 [ARV-771],EC50,90 nM
